From patent US20030207877A1, “Pyridoquinoxaline antivirals” (priority 2001, published 2003) come the findings set out here.

The target in data set [1] is T1, Alpha Polymerase (Homo sapiens, UniProt P09884).
T1 sequence (P09884 1-1462): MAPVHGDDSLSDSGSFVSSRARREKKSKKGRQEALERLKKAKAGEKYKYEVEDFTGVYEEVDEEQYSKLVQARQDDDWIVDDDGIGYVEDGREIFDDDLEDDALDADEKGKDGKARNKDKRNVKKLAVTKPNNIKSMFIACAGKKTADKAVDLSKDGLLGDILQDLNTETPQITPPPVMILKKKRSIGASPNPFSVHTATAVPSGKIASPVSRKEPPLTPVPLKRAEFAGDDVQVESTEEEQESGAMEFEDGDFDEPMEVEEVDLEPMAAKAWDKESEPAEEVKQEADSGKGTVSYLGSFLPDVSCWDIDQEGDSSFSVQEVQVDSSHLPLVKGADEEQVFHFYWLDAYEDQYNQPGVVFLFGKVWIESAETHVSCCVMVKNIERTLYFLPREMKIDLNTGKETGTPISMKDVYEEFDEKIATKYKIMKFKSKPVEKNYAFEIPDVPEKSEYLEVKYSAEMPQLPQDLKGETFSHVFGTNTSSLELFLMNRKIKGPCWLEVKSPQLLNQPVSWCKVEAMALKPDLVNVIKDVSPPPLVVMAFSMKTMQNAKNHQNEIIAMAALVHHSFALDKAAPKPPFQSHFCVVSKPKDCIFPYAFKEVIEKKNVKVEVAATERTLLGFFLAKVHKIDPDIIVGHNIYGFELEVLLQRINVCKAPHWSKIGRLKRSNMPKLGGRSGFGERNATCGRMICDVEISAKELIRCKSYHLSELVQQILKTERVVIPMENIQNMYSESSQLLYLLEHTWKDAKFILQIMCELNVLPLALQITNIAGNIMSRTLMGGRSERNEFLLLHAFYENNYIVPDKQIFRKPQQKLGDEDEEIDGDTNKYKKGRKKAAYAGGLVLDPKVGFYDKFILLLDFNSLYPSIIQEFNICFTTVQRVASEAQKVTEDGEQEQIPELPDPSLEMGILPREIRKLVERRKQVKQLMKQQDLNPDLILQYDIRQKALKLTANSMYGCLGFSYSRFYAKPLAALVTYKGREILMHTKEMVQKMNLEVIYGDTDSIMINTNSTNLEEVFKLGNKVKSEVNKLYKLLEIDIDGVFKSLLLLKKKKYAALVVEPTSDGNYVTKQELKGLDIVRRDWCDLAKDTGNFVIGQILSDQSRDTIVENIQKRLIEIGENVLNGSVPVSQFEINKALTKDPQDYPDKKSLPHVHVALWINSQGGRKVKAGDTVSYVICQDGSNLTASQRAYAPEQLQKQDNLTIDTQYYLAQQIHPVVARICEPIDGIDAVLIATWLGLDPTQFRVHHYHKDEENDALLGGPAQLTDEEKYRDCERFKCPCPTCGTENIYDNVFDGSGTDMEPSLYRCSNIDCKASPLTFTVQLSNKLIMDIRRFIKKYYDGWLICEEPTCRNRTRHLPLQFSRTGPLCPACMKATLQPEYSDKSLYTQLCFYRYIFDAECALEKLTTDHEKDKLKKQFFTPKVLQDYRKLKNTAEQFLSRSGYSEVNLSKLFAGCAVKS
As to the kind of experiment: Alpha polymerase inhibition (selectivity). In kind it is biochemical.

Data set [2] deals with T2, HCMV polymerase (Human cytomegalovirus, UniProt P08546).
T2 construct: made in house; host or cells: SF-9 insect cells infected with recombinant baculovirus
T2 sequence (P08546 whole entry): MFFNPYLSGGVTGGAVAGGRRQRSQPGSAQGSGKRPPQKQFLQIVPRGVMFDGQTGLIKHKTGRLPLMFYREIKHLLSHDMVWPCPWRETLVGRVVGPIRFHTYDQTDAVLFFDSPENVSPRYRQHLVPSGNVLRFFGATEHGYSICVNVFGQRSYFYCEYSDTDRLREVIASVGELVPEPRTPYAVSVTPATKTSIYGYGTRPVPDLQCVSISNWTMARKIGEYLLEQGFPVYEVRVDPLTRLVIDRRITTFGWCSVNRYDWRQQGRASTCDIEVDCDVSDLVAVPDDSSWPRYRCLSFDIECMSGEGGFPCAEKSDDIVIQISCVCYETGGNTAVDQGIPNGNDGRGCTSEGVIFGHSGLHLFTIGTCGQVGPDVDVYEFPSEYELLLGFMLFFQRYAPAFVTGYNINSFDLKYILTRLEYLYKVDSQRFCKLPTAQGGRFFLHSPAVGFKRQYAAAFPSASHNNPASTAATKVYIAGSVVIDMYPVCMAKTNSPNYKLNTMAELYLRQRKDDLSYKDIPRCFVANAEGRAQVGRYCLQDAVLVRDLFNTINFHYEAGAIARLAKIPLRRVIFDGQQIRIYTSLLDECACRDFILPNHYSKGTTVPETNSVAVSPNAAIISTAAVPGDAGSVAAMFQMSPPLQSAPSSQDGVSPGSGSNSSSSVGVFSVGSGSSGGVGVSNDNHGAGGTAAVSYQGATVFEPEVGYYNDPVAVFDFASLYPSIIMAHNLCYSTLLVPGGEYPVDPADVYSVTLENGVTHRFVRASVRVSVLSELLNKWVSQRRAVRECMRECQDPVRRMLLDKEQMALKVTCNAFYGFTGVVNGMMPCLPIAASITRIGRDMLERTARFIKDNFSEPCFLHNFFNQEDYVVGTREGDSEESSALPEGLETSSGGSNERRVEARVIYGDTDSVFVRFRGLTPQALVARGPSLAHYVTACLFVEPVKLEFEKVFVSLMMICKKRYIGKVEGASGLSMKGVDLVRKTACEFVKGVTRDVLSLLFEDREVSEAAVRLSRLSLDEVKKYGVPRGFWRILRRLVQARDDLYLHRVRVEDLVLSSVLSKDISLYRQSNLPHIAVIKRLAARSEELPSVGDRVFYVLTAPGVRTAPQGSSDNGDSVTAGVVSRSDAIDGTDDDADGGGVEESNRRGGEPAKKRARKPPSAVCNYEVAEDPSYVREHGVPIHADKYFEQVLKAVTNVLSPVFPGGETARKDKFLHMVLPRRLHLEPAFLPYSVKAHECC
The data set is described as follows: HCMV polymerase assay (scintillation proximity assay), original and modified version. In kind it is biochemical. The settings on record: SPA; several values per example = repeat determinations, assay version not given; read-out: CMV Polymerase IC50. The procedure: The HCMV polymerase assay is performed using a scintillation proximity assay (SPA) as described in several references, such as N.D. Cook, et al., Pharmaceutical Manufacturing International, pages 49-53 (1992); K. Takeuchi, Laboratory Practice, September issue (1992); U.S. Pat. No. 4,568,649 (1986); which are incorporated by reference herein. Reactions are performed in 96-well plates. The assay is conducted in 100 μl volume with 5.4 mM HEPES (pH 7.5), 11.7 MM KCl, 4.5 mM MgCl2, 0.36 mg/ml BSA, and 90 nM ^3H-dTTP. Assays are run with and without CHAPS, (3-[(3-Cholamidopropyl)-dimethylammoniol-1-propane-sulfonate) at a final concentration of 2 mM. HCMV polymerase is diluted in enzyme dilution buffer containing 50% glycerol, 250 mM NaCl, 10 mM HEPES (pH 7.5), 100 μg/ml BSA, and 0.01% sodium azide. The HCMV polymerase, which is expressed in recombinant baculovirus-infected SF-9 cells and purified according to literature procedures, is added at 10% (or 10 μl) of the final reaction volume, i.e., 100 μl. Compounds are diluted in 50% DMSO and 10 μl are added to each well. Control wells contain an equivalent concentration of DMSO. Unless noted otherwise, reactions are initiated via the addition of 6 nM biotinylated poly(dA)-oligo(dT) template/primer to reaction mixtures containing the enzyme, substrate, and compounds of interest. Plates are incubated in a 25° C. or 37° C. H2O bath and terminated via the addition of 40 μl/reaction of 0.5 M EDTA (pH 8) per well. Reactions are terminated within the time-frame during which substrate incorporation is linear and varied depending upon the enzyme and conditions used, i.e., 30 min. for HCMV polymerase. Ten (10) μl of streptavidin-SPA beads (20 mg/ml in PBS/10% glycerol) are added following termination of the reaction. Plates are incubated 10 min. at 37° C., then equilibrated to room temperature, and counted on a Packard Topcount. Linear regressions are performed and IC50's are calculated using computer software.
A modified version of the above HCMV polymerase assay is performed as described above, but with the following changes: Compounds are diluted in 100% DMSO until final dilution into assay buffer. In the previous assay, compounds are diluted in 50% DMSO. 4.5 mM dithiotherotol (DTT) is added to the polymerase buffer.
For orientation: In a scintillation proximity assay essentially only radioactivity close to the scintillant gives light.

SMILES strings stand for the structures. Values joined by “and” are separate entries in the source; they are usually repeats but may differ in a detail not shown here. Identical values can stand only once. Where only a bound is given, the exact number is not on record here.

`CN(Cc1cc2c3c(c1)c(=O)c(C(=O)NCc1ccc(Cl)cc1)cn3CC(=O)N2C)C[C@@H](O)c1cnccn1` [Example 21, N-(4-chlorobenzyl)-9-{[[(2R)-2-hydroxy-2-pyrazin-2-ylethyl](methyl)amino]methyl}-1-methyl-2,7-dioxo-2,3-dihydro-1H,7H-pyrido[1,2,3-de]quinoxaline-6-carboxamide] registered a melting point of 97 to 98 °C. This compound also came in with an IC50 in data set [1] of more than 10000 nM. Moreover, the IC50 in data set [2] is 160 nM and 120 nM.

On to `CN(Cc1cc2c3c(c1)c(=O)c(C(=O)NCc1ccc(Cl)cc1)cn3CC(=O)N2C)CC(O)c1ccc2ccccc2n1` (racemic) [Example 16, rac N-(4-chlorobenzyl)-9-{([2-hydroxy-2-quinolin-2-ylethyl](methyl)amino)methyl 1-1-methyl-2,7-dioxo-2,3-dihydro-1H,7H-pyrido[1,2,3-de]quinoxaline-6-carboxamide], for which the melting point is 173 to 177 °C. Besides, the IC50 in data set [1] is more than 20000 nM. Also, in data set [2], the concentration for half-maximal inhibition (IC50) is 48 nM and 36 nM.

Regarding `CN(Cc1cc2c3c(c1)c(=O)c(C(=O)NCc1ccc(Cl)cc1)cn3CC(=O)N2C)CC(O)c1cc2ccccc2o1` (racemic) [Example 3, rac 9-{([2-(1-benzofuran-2-yl)-2-hydroxyethyl](methyl)amino)methyl}-N-(4-chlorobenzyl)-1-methyl-2,7-dioxo-2,3-dihydro-1H,7H-pyrido[1,2,3-de]quinoxaline-6-carboxamide], the IC50 in data set [1] is more than 5000 nM; in data set [2], 8.6 nM and 7.8 nM and 7.2 nM.

Compound `CN(Cc1cc2c3c(c1)c(=O)c(C(=O)NCc1ccc(F)cc1)cn3CC(=O)N2C)C[C@@H](O)c1nccs1` [Example 27, N-(4-fluorobenzyl)-9-{[[(2R)-2-hydroxy-2-(1,3-thiazol-2-yl)ethyl](methyl)amino]methyl}-1-methyl-2,7-dioxo-2,3-dihydro-1H,7H-pyrido[1,2,3-de]quinoxaline-6-carboxamide] yielded a melting point of 156 to 158 °C. Also, the IC50 in data set [2] worked out at 2080 nM.

In turn, `CN(Cc1cc2c3c(c1)c(=O)c(C(=O)NCc1ccc(Cl)cc1)cn3CC(=O)N2C)CC(O)c1ncccn1` (racemic) [Example 19, rac N-(4-chlorobenzyl)-9-{([2-hydroxy-2-pyrimidin-2-ylethyl](methyl)amino)methyl}-1-methyl-2,7-dioxo-2,3-dihydro-1H,7H-pyrido [1,2,3-de]quinoxaline-6-carboxamide] registered a melting point of 168 to 170 °C. Further, the IC50 in data set [2] was 490 nM.

On to `CN(Cc1cc2c3c(c1)c(=O)c(C(=O)NCc1ccc(Cl)cc1)cn3CC(=O)N2CCO)CC(O)c1cc2ccccc2o1` (racemic) [Example 26, rac 9-{([2-(1-benzofuran-2-yl)-2-hydroxyethyl](methyl)amino)methyl}-N-(4-chlorobenzyl)-1-(2-hydroxyethyl)-2,7-dioxo-2,3-dihydro-1H,7H-pyrido[1,2,3-de]quinoxaline-6-carboxamide], for which the melting point was in the range of 195 to 197 °C. The IC50 in data set [2] was 880 nM.

As to `CN(Cc1cc2c3c(c1)c(=O)c(C(=O)NCc1ccc(F)cc1)cn3CC(=O)N2C)C[C@@H](O)c1ccccn1` [Example 24, N-(4-fluorobenzyl)-9-{[[(2R)-2-hydroxy-2-pyridin-2-ylethyl](methyl)amino]methyl}-1-methyl-2,7-dioxo-2,3-dihydro-1H,7H-pyrido[1,2,3-de]quinoxaline-6-carboxamide], the melting point fell in the range of 121 to 123 °C. In addition, in data set [2], the IC50 amounted to 1870 nM.

Consider `CN(Cc1cc2c3c(c1)c(=O)c(C(=O)NCc1ccc(Cl)cc1)cn3CC(=O)N2C)C[C@@H](O)c1ccccc1` [Example 12, N-(4-chlorobenzyl)-9-{[[(2S)-2-hydroxy-2-phenylethyl](methyl)amino]methyl}-1-methyl-2,7-dioxo-2,3-dihydro-1H,7H-pyrido[1,2,3-de]quinoxaline-6-carboxamide], for which the IC50 in data set [1] was not below 20000 nM.

On to `Cc1cc(C(O)CN(C)Cc2cc3c4c(c2)c(=O)c(C(=O)NCc2ccc(Cl)cc2)cn4CC(=O)N3C)c(C)o1` (racemic) [Example 7, rac N-(4-chlorobenzyl)-9-{([2-(2,5-dimethyl-3-furyl)-2-hydroxyethyl](methyl)amino)methyl}-1-methyl-2,7-dioxo-2,3-dihydro-1H,7H-pyrido[1,2,3-de]quinoxaline-6-carboxamide], for which the melting point was in the range of 157 to 160 °C. The IC50 in data set [2] stood at 250 nM.

In turn, `CN(Cc1cc2c3c(c1)c(=O)c(C(=O)NCc1ccc(Cl)cc1)cn3CC(=O)N2C)CC(O)c1ccoc1` (racemic) [Example 4, rac N-(4-chlorobenzyl)-9-{([2-(3-furyl)-2-hydroxyethyl](methyl)amino)methyl}-1-methyl-2,7-dioxo-2,3-dihydro-1H,7H-pyrido[1,2,3-de]quinoxaline-6-carboxamide] showed a melting point of 145 to 148 °C. For the same compound, the IC50 in data set [2] amounted to 570 nM.

The compound `CN(Cc1cc2c3c(c1)c(=O)c(C(=O)NCc1ccc(Cl)cc1)cn3CC(=O)N2C)C[C@@H](O)c1nccs1` [Example 22, N-(4-chlorobenzyl)-9-{[[(2R)-2-hydroxy-2-(1,3-thiazol-2-yl)ethyl](methyl)amino]methyl}-1-methyl-2,7-dioxo-2,3-dihydro-1H,7H-pyrido[1,2,3-de]quinoxaline-6-carboxamide] showed a melting point of 125 to 130 °C. Moreover, in data set [2], the IC50 came out at 490 nM.

As for `CN(Cc1cc2c3c(c1)c(=O)c(C(=O)NCc1ccc(Cl)cc1)cn3CC(=O)N2C)CC(O)c1ccc(C#N)s1` (racemic) [Example 20, rac N-(4-chlorobenzyl)-9-{([2-(5-cyanothein-2-yl)-2-hydroxyethyl](methyl)amino)methyl}-1-methyl-2,7-dioxo-2,3-dihydro-1H,7H-pyrido[1,2,3-de]quinoxaline-6-carboxamide], the melting point is 122 to 126 °C. Further, in data set [2], the concentration for half-maximal inhibition (IC50) is 410 nM.

As a reminder, the IC50 is the midpoint of a concentration-inhibition curve. For orientation: melting point means the temperature, or range, at which the solid turns liquid.
